Results taken from patent publication US8188292B2, “Insecticidal N-substituted (heteroaryl)alkyl sulfilimines” (Dow AgroSciences, LLC, priority 2006, dated 2012).

Tests used:
[1] = system: cotton aphid (Aphis gossypii); test: Insecticidal test for cotton aphid in foliar spray assay; assay type: in vivo; design: key to CA 50: % control at 50 ppm against cotton aphid in foliar spray tests: A: 90-100; B: 80-89; C: 70-79; D: 60-69; E: 50-59; F: Less than 50; G: Inactive; H: Not tested; details: foliar spray on squash cotyledons, 3 days, Corrected % Control (Abbott); for pest or weed control at 200 ppm / pest or weed control at 50 ppm: Aphis gossypii, 72 h; for pest or weed control at 200 ppm: read-out: CA 200: % control at 200 ppm against cotton aphid in foliar spray tests; for pest or weed control at 50 ppm: read-out: CA 50: % control at 50 ppm against cotton aphid in foliar spray tests
Description: (§1) The compounds identified in the foregoing examples were tested against cotton aphid and green peach aphid using procedures described hereinafter. Insecticidal Test for Cotton Aphid (Aphis Gossypii) in Foliar Spray Assay Squash with fully expanded cotyledon leaves were trimmed to one cotyledon per plant and infested with cotton aphid (wingless adult and nymph) 1 day prior to chemical application. Each plant was examined before chemical application to ensure proper infestation (ca. 30-70 aphids per plant). Compounds (2 mg) were dissolved in 2 ml of acetone:methanol (1:1) solvent, forming stock solutions of 1000 ppm. The stock solutions were diluted 5× with 0.025% Tween 20 in H2O to obtain a solution at 200 ppm. Lower concentrations (50, 12.5 and 3.13 ppm) were prepared by making sequential 4× dilutions from the 200 ppm solution with a diluent consisting 80 parts of 0.025% Tween 20 in H2O and 20 parts of acetone:methanol (1:1). A hand-held Devilbiss sprayer was used to apply the spray solutions until runoff to both sides of the squash cotyledon leaves. Four plants (4 replications) were used for each concentration of each compound. Reference plants (solvent check) were sprayed with the diluent only. Treated plants were held in a holding room for 3 days at approximately 23° C. and 40% RH before the number of live aphids on each plant was recorded. Insecticidal activity was measured by Corrected % Control using Abbott's correction formula and presented in Table 1: Corrected % Control=100*(X−Y)/X • where X=No. of live aphids on solvent check plants • Y=No. of live aphids on treated plants Insecticidal Test for Green Peach Aphid (Myzus Persicae) in Foliar Spray Assay

[2] = system: green peach aphid (Myzus persicae); test: Insecticidal test for green peach aphid in foliar spray assay; assay type: in vivo; design: key to GPA 50: % control at 50 ppm against green peach aphid in foliar spray tests / GPA 200: % control at 200 ppm against green peach aphid in foliar spray tests: A: 90-100; B: 80-89; C: 70-79; D: 60-69; E: 50-59; F: Less than 50; G: Inactive; H: Not tested; details: foliar spray on cabbage seedlings, 3 days, Corrected % Control (Abbott); for pest or weed control at 200 ppm / pest or weed control at 50 ppm: Myzus persicae, 72 h; for pest or weed control at 200 ppm: read-out: GPA 200: % control at 200 ppm against green peach aphid in foliar spray tests; for pest or weed control at 50 ppm: read-out: GPA 50: % control at 50 ppm against green peach aphid in foliar spray tests
Description: as §1, with “hereinafter.” for “hereinafter. Insecticidal Test for Cotton Aphid (Aphis Gossypii) in Foliar Spray Assay”, “Assay Cabbage seedlings grown in 3-inch pots, with 2-3 small (3-5 cm) true leaves, were used as test substrate. The seedlings were infested with 20-50 green peach aphids (wingless adult and nymph) 2-3 days prior to chemical application. Four seedlings were used for each treatment. Compounds (2 mg) were dissolved in 2 ml of acetone:methanol (1:1) solvent, forming stock solutions of 1000 ppm. The stock solutions were diluted 5× with 0.025% Tween 20 in H2O to obtain a solution at 200 ppm. Lower concentrations (50, 12.5 and 3.13 ppm) were prepared by making sequential 4× dilutions from the 200 ppm solution with a diluent consisting 80 parts of 0.025% Tween 20 in H2O and 20 parts of acetone: methanol (1:1). A hand-held Devilbiss sprayer was used for spraying a solution to both sides of cabbage leaves until runoff. Reference plants (solvent check) were sprayed with the diluent only. Treated plants were held in a holding room for three days at approximately 23° C. and 40% RH prior to grading. Evaluation was conducted by counting the number of live aphids per plant under a microscope. Insecticidal activity was measured by using Abbott's correction formula: Corrected % Control=100*(X−Y)/X • where X=No. of live aphids on solvent check plants • Y=No. of live aphids on treated plants The Corrected % Control values from assays are given in Table 1.” for “Assay”

Question: Which “CA 50: % control at 50 ppm against cotton aphid in foliar spray tests” value ([1]; 50 ppm) does the source give for `CS(=NC#N)[C@@H]1CCC[C@@H]1c1ccc(Cl)nc1` (relative stereo) [Compound 9, cis-[2-(6-chloropyridin-3-yl)cyclopentyl](methyl)-λ^4-sulfanylidenecyanamide] here?
Answer: The value was “G”.

Question: And the pest or weed control at 200 ppm [1]?
Answer: Its pest or weed control at 200 ppm is 60 to 69%.

Question: And the “GPA 50: % control at 50 ppm against green peach aphid in foliar spray tests” value (“GPA 50: % control at 50 ppm” below) [2]?
Answer: The value was “G”.

Question: And the pest or weed control at 200 ppm [2]?
Answer: Its pest or weed control at 200 ppm is 60 to 69%.

Question: For `C/S(Cc1ccc(C(F)(F)F)nc1)=N\C#N` (stereo not drawn) [Compound 1], which pest or weed control at 50 ppm ([1]; 50 ppm) is on record?
Answer: The pest or weed control at 50 ppm was 60 to 69%.

Question: What about the pest or weed control at 200 ppm [1] of the same molecule?
Answer: Its pest or weed control at 200 ppm is 90 to 100%.

Question: What about the “GPA 50: % control at 50 ppm” value [2] of the same molecule?
Answer: The value was “G”.

Question: What about the “GPA 200: % control at 200 ppm against green peach aphid in foliar spray tests” value [2] of the same molecule?
Answer: Its value is “G”.

Question: How did the pest or weed control at 50 ppm ([1]; 50 ppm) turn out when `CC(c1ccc(C(F)(F)Cl)nc1)/S(C)=N/C#N` (stereo not drawn) [Compound 2, (1-{6-[chloro(difluoro)methyl]pyridin-3-yl}ethyl)(methyl)-λ^4-sulfanylidenecyanamide] was run?
Answer: Its pest or weed control at 50 ppm is 90 to 100%.

Question: And the pest or weed control at 200 ppm [1]?
Answer: The pest or weed control at 200 ppm was 90 to 100%.

Question: And the pest or weed control at 50 ppm [2]?
Answer: The pest or weed control at 50 ppm was 90 to 100%.

Question: And the pest or weed control at 200 ppm [2]?
Answer: The pest or weed control at 200 ppm was 90 to 100%.

Question: For `CC(c1ccc(C(Cl)(Cl)Cl)nc1)/S(C)=N/C#N` (stereo not drawn) [Compound 3, {1-[6-(trichloromethyl)pyridin-3-yl]ethyl}(methyl)-λ^4-sulfanylidenecyanamide], which pest or weed control at 50 ppm ([1]; 50 ppm) is on record?
Answer: Its pest or weed control at 50 ppm is 90 to 100%.

Question: And the pest or weed control at 200 ppm [1]?
Answer: The pest or weed control at 200 ppm was 90 to 100%.

Question: And the pest or weed control at 50 ppm [2]?
Answer: Its pest or weed control at 50 ppm is 90 to 100%.

Question: And the pest or weed control at 200 ppm [2]?
Answer: Its pest or weed control at 200 ppm is 90 to 100%.

Question: What does the source list for `CC(c1cnc(Cl)nc1)/S(C)=N/C#N` (stereo not drawn) [Compound 4, (1E)-[1-(2-chloropyrimidin-5-yl)ethyl](methyl)-λ^4-sulfanylidenecyanamide]?
Answer: pest or weed control at 50 ppm ([1]; 50 ppm): 70 to 79%; pest or weed control at 200 ppm [1]: 90 to 100%; GPA 50: % control at 50 ppm against green peach aphid in foliar spray tests [2]: G; pest or weed control at 200 ppm [2]: < 50%

Question: Which pest or weed control at 50 ppm ([1]; 50 ppm) does the source give for `C/S(Cc1cnc(C(F)(F)F)s1)=N\C#N` (stereo not drawn) [Compound 5, (1E)-methyl {[2-(trifluoromethyl)-1,3-thiazol-5-yl]methyl}-λ^4-sulfanylidenecyanamide] here?
Answer: Its pest or weed control at 50 ppm is 50 to 59%.

Question: And the pest or weed control at 200 ppm [1]?
Answer: The pest or weed control at 200 ppm was 90 to 100%.

Question: What about the “GPA 50: % control at 50 ppm” value [2] of the same molecule?
Answer: Its value is “G”.

Question: And the “GPA 200: % control at 200 ppm against green peach aphid in foliar spray tests” value [2]?
Answer: The value was “G”.

Question: How did the pest or weed control at 50 ppm ([1]; 50 ppm) turn out when `N#C/N=S1/CCC(c2ccc(C(F)(F)F)nc2)C1` (stereo not drawn) [Compound 6, 3-[6-(trifluoromethyl)pyridin-3-yl]tetrahydro-1H-1λ^4-thien-1-ylidenecyanamide] was run?
Answer: The pest or weed control at 50 ppm was 90 to 100%.

Question: What about the pest or weed control at 200 ppm [1] of the same molecule?
Answer: The pest or weed control at 200 ppm was 90 to 100%.

Question: And the pest or weed control at 50 ppm [2]?
Answer: The pest or weed control at 50 ppm was 50 to 59%.

Question: And the pest or weed control at 200 ppm [2]?
Answer: Its pest or weed control at 200 ppm is 70 to 79%.

Question: With `C/S(Cc1cnc(Cl)c(F)c1)=N\C#N` (stereo not drawn) [Compound 7, [(5-fluoro-6-chloropyridin-3-yl)methyl](methyl)-λ^4-sulfanylidenecyanamide] as the molecule, how does the pest or weed control at 50 ppm ([1]; 50 ppm) read?
Answer: Its pest or weed control at 50 ppm is 90 to 100%.

Question: And the pest or weed control at 200 ppm [1]?
Answer: The pest or weed control at 200 ppm was 90 to 100%.

Question: And the pest or weed control at 50 ppm [2]?
Answer: Its pest or weed control at 50 ppm is 60 to 69%.

Question: What about the pest or weed control at 200 ppm [2] of the same molecule?
Answer: Its pest or weed control at 200 ppm is 70 to 79%.

Question: `C/S(Cc1ccc(C(C)(F)F)nc1)=N\C#N` (stereo not drawn) [Compound 8] was tested. Which pest or weed control at 50 ppm ([1]; 50 ppm) did it give?
Answer: The pest or weed control at 50 ppm was 90 to 100%.

Question: What about the pest or weed control at 200 ppm [1] of the same molecule?
Answer: Its pest or weed control at 200 ppm is 90 to 100%.

Question: What about the pest or weed control at 50 ppm [2] of the same molecule?
Answer: The pest or weed control at 50 ppm was 60 to 69%.

Question: What about the pest or weed control at 200 ppm [2] of the same molecule?
Answer: Its pest or weed control at 200 ppm is 90 to 100%.
